Data published in patent US5654296A, “Condensed heterocyclic compounds, their production and use” (priority 1994, dated 1997).
Counter-ions that a name gives are not always drawn.

Experiments:
serotonine (5-HT) uptake = experiment: Activity to inhibit serotonine (5-HT) uptake; assay type: biochemical; conditions: rat whole brain; 3H-5-HT 10 nM; 37° C.; pH 7.4; read-out: 5-HT uptake inhibitory activity (IC50 μM)
Procedure, shortened: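 Rat whole-brain synaptosomal pellet (prepared in sucrose with 10 μM pargyline) in Krebs-Ringer-phosphate buffer pH 7.4, preincubated with test drug 5 min at 37° C. 3H-5-HT (final 10 nM) then added for 5 min at 37° C.; filter-bound radioactivity counted by liquid scintillation; IC50 = dose halving uptake.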

[1] = test system: 45Ca2+ uptake (veratrine-stimulated, rat cerebral cortex crude synaptosome fraction); experiment: 45Ca2+ uptake inhibition experiment; assay type: biochemical; conditions: 30 μM veratrine, 37° C., 10 minutes, read-out: 45Ca2+ uptake inhibitory activity (IC50 μM)
Procedure, shortened: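 Rat cerebral cortex crude synaptosomes preincubated with test drug 10 min at 37° C, then stimulated with 30 μM veratrine plus 45Ca2+ for 10 min at 37° C; quenched with EGTA, filtered, radioactivity counted by liquid scintillation. Inhibition rate derived from uptake with/without drug and with/without veratrine.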

[2] = target: T1, GnRH receptors (rat pituitary anterior lobe membrane fraction) (Rattus norvegicus, UniProt P30969); experiment: 125I-leuprolerin GnRH receptor binding inhibition test, rat pituitary anterior lobe membrane fraction; conditions: 4° C., 90 minutes, read-out: Binding inhibitory activity (IC50 μM) Rat
T1 construct: the anterior lobe of the pituitary gland was isolated and washed with ice-cooled homogenate buffer; from tissue; host or cells: anterior lobe of the pituitary gland, male Wistar rats (8 weeks old), membrane fraction
T1 sequence (P30969 1-327): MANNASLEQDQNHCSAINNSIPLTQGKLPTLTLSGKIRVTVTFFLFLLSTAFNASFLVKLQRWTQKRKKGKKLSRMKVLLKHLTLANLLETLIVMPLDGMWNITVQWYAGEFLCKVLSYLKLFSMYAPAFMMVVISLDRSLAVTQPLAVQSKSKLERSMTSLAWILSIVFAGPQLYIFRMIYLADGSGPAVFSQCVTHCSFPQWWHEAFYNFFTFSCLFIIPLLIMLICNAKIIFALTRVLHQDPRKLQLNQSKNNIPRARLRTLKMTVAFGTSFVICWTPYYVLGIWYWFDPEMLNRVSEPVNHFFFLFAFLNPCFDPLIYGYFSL
Method: Ten (10) μl of 3×10^4 M aqueous leuprolerin solution and 10 μl of 0.01 mg/ml lactoperoxidase were taken in a tube and 10 μl of Na^125 I solution (37 MBq) was added. After stirring, 10 μl of 0.001% H2 O2 was added and the reaction was conducted at room temperature for 20 minutes. Then, 700 μl of 0.05% TFA solution was added to the tube to terminate the reaction and the reaction mixture was purified by reverse-phase HPLC. The HPLC conditions are shown below. ^125 I-leuprolerin was eluted after a retention time of 26-27 minutes. (B) Preparation of a Rat Pituitary Anterior Lobe Membrane Fraction Containing GnRH Receptors […] The pituitary tissue was floated in 2 ml of the homogenate buffer and homogenized using a Polytron homogenizer. The homogenate was centrifuged at 700×G for 15 minutes. The supernatant was taken in an ultracentrifuge tube and centrifuged at 100,000×G for 1 hour to provide a membrane fraction pellet. […] The membrane fraction recovered as a pellet was resuspended in 10 ml of assay buffer, divided into portions, preserved at -80° C. and thawed when needed. […] For the rat and human membrane fractions prepared in (B) and (D), each membrane fraction was diluted with assay buffer to a concentration of 200 μg/ml and distributed in 188 μl portions into tubes. As to the bovine membrane fraction prepared in (C), the membrane fraction was diluted with assay buffer to 750 μg/ml and distributed in 188 μl portions into tubes. […] Where the rat or bovine pituitary anterior lobe membrane fraction was used, the reaction was conducted at 4° C. for 90 minutes. Where the membrane fraction of the CHO with human GnRH receptors expressed was used, the reaction was carried out at 25° C. for 60 minutes. […] After filtration, the radioactivity of ^125 I-leuprolerin remaining on the filter was measured with a γ-counter. The expression (TB-SB)/(TB-NSB)×100 (where SB=radioactivity with the compound added, TB=maximum bound radioactivity, NSB=nonspecifically bound radioactivity) was calculated to find the binding inhibition rate of each test compound.

[3] = test system: norepinephrine (NE) uptake; experiment: Activity to inhibit norepinephrine (NE) uptake; assay type: biochemical; conditions: rat cerebral cortex; 3H-NE; read-out: NE uptake inhibitory activity (IC50 μM)
Method: The experiment was performed in accordance with the method of Hyttel et al. [Psychopharmacology 60, 13, 1978]. The whole brain of a rat was homogenized in 40 volumes of ice-cooled 0.32M sucrose solution containing 10 μM pargyline and, then, centrifuged (600×G) for 10 minutes. The supernatant was centrifuged (2500×G) for 55 minutes to provide a pellet. This pellet was suspended in Krebs-Ringer-phosphate buffer (pH 7.4; 122 mM NaCl, 4.82 mM KCl, 0.972 mM CaCl2, 1.21 mM MgSO4, 12.7 mM Na2 HPO4, 2.97 mM NaH2 PO4, 0.162 mM EDTA sodium, 10 mM glucose, 1.14 mM ascorbic acid) saturated with a mixed gas (95% O and 5% CO2). To 900 μl of this suspention was added a solution of the test drug (10 μl) in DMSO and the mixture was incubated at 37° C. for 5 minutes. Then, 100 μl of ^3 H-5-HT (final concentration 10 nM) was added and the mixture was further incubated at 37° C. for 5 minutes. This reaction mixture was filtered under suction using a GF/B filter and the filter was washed with 4 ml of the above-mentioned buffer. The radioactivity on the filter was measured by the liquid scintillation method.
(b) Activity to inhibit norepinephrine (NE) uptake
Using the rat cerebral cortex and, as the substrate, ^3 H-NE, an experiment was performed by otherwise the same procedure as described for 5-HT.

**Q.** What does the source list for c1ccc(CCNCCCC2(c3ccccc3)COCc3ccccc32)cc1 (stereo not drawn) [Example I-24, 4-[3-(β-Phenethylamino)propyl]-4-phenylisochroman hydrochloride]?
**A.** IC50 (serotonine (5-HT) uptake): 0.26 µM; IC50 [1]: 1.77 µM; IC50 [2]: 0.9 µM; IC50 [3]: 0.22 µM

**Q.** With c1ccc(C2(CCCN3CCCCC34CCc3ccccc3C4)COCc3ccccc32)cc1 (centres unmarked) [Example I-35, 3,4-Dihydro-1'-[3-(4-phenylisochroman-4-yl)propyl]spiro[naphthalene-2(1H),2'-piperidine] hydrochloride] as the compound, how does the IC50 (serotonine (5-HT) uptake) read?
**A.** Its IC50 is 0.13 µM.

**Q.** And the IC50 [1]?
**A.** The IC50 was 0.14 µM.

**Q.** What about the IC50 [2] of the same compound?
**A.** The IC50 was 0.7 µM.

**Q.** What about the IC50 [3] of the same compound?
**A.** Its IC50 is 0.3 µM.

**Q.** How did the IC50 (serotonine (5-HT) uptake) turn out when COc1ccc2c(c1)CCC1(CCCCN1CCCC1(c3ccccc3)COCc3ccccc31)C2 (centres unmarked) [Example I-36, 3,4-Dihydro-6-methoxy-1'-[3-(4-phenylisochroman-4-yl)propyl]spiro[naphthalene-2(1H),2'-piperidine] hydrochloride] was run?
**A.** Its IC50 is 0.0051 µM.

**Q.** What about the IC50 [1] of the same compound?
**A.** The IC50 was 0.76 µM.

**Q.** What about the IC50 [2] of the same compound?
**A.** The IC50 was 0.6 µM.

**Q.** What about the IC50 [3] of the same compound?
**A.** The IC50 was 0.41 µM.

**Q.** COC(=O)c1cccc(CNCCCC2(c3ccccc3)COCc3ccccc32)c1 (stereo not drawn) [Example I-45, Methyl α-[3-(4-Phenylisochroman-4-yl)propylamino]-m-toluate hydrochloride] was tested. Which IC50 [2] did it give?
**A.** The IC50 was 0.5 µM.

**Q.** For COc1cc2c(cc1OC)CC1(CCCCN1CCCCC1(c3ccccc3)COCc3ccccc31)CC2 (centres unmarked) [Example I-52, 3,4-Dihydro-6,7-dimethoxy-1'-[4-(4-phenylisochroman-4-yl)butyl]spiro[naphthalene-2(1H),2'-piperidine] hydrochloride], which IC50 [2] is on record?
**A.** Its IC50 is 0.03 µM.
